Reference: patent US20020102246A1, “Antimicrobial compositions” (Novozymes A/S, priority 2000, published 2002)
Marks after values point to notes of the source that are not given here.

Tested on: Pseudomonas putida (ATCC 12633)
Assay: Antimicrobial activity of mediators oxidized by Coprinus cinereus peroxidase (rCiP)
Assay type: cell-based
Settings: 50 μM mediator, rCiP 4 POXU/L, 0.5 mM hydrogen peroxide, 20 minutes at 40° C., pH 7; 6 corresponds to a total kill
Description: Antibacterial activity of 4-aminophenol, 4-hydroxy-4′-dimethylamino azobenzene, 4,4′-biphenol, 10-methylphenoxazine and 4,4′-dihydroxydiphenyl ether was evaluated when oxidized by Coprinus cinereus peroxidase (rCiP) (available from Novozymes A/S).
Antimicrobial activity was determined on Pseudomonas putida (ATCC 12633), the cells were grown in Tryptone Soy Broth, TSB (Oxoid CM129) overnight, washed two times in sterile 0.9% saline and suspended in 50 mM HEPES buffer (Sigma H3375) at pH 7 to a cell concentration of approximately 10^6 CFU/ml. The mediators were added to the cell suspension to a final concentration of 50 μM, rCiP was added to the concentration 4 POXU/L and the enzyme reaction was started by addition of hydrogen peroxide to a final concentration of 0.5 mM. Antimicrobial activity was determined after 20 minutes incubation at 40° C., by a 10-fold dilution of the cell suspension into TSB substrate and incubation overnight. Antimicrobial activity was determined as log10 reduction, thus a log10 reduction of 2 corresponds to a kill of 99%.

Structure (SMILES) | Log10 reduction
Oc1ccc(-c2ccc(O)cc2)cc1 [4,4′-Biphenol, 97%, 4,4′-Biphenol] | 1.5
Oc1ccc(Oc2ccc(O)cc2)cc1 [4,4′-Dihydroxyphenyl ether, 4,4′-Dihydroxydiphenyl ether] | 2.5
CN(C)c1ccc(N=Nc2ccc(O)cc2)cc1 [4-Hydroxy-4′-dimethylamino azobenzene] | 6*
Nc1ccc(O)cc1 [4-aminophenol] | 2.5
CN1c2ccccc2Oc2ccccc21 [10-Methylphenoxazine] | 3
